In one experiment the test system is Euphorbia heterophylla. The experiment is described as follows: Field trial, weed efficacy, post applied. Format: in vivo. To be noted: Atrazine 1000 g ai/ha; application at 5 leaf stage; assessment 14 days after application.
The next experiment has as its target PfHPPDEvo40 (Pseudomonas sp., UniProt P80064, A172V/A339E/A53E/D148E/D45N/E105D/E287Q/E300V/E334P/F143Y/G286D/G335S/H150N/H254A/H63N/I158V/I187A/I249V/K92N/L18F/N24G/N280D/S245T/S257K/S301E/T205S/V65I). The experiment is described as follows: Brown color assay, HPPD inhibitor tolerance of E. coli HPPD extracts. To be noted: extract titrated on 250 uM inhibitor; brown pigment formation.

The subject of another experiment is Amaranthus retroflexus. The note with it: Glufosinate-ammonium 500 g ai/ha; application at 6 leaf stage; assessment 14 days after application.
Experiment [1] has as its system Ipomoea aristolochiaefolia. To be noted: Glyphosate 960 g ai/ha; application at 6 leaf stage; assessment 14 days after application.
Another experiment relates to Digitaria horizontalis. In words: Field trial, weed efficacy, post applied. The note with it: application at 2 tillers, assessment 14 days after application. Format: in vivo.

The source of these data is patent US10159249B2 (BAYER CROPSCIENCE AKTIENGESELLSCHAFT, priority 2013, dated 2018).

Sequence of PfHPPDEvo40 (P80064 other isoform, or with tags, fused parts or gaps with the stated changes): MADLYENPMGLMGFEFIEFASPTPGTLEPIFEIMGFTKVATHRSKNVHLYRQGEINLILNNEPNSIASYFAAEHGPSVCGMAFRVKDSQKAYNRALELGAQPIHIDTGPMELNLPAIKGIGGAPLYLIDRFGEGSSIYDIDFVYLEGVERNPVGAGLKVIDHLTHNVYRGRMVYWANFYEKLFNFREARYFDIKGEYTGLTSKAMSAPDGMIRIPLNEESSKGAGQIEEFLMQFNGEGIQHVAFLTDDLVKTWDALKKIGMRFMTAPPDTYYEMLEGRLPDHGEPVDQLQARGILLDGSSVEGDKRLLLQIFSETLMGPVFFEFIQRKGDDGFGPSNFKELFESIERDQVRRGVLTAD

As to `CCNc1nc(Cl)nc(NC(C)C)n1` [Atrazine, reference compound], the “Efficacy (%) Euphorbia heterophylla” value in the experiment on Euphorbia heterophylla worked out at 74%. Consider `CS(=O)(=O)c1cc(C(F)(F)F)ccc1C(=O)C(C#N)C(=O)C1CC1` (stereo not shown) [DKN, diketonitrile], for which the “tolerance of variant PfHPPDEvo40 to the inhibitor compared to PfHPPD336W” value on PfHPPDEvo40 is reported as “improved tolerance”.

Regarding `CP(=O)(O)CCC(N)C(=O)O` (stereo not shown) [Glufosinate-ammonium, reference compound], in the experiment on Amaranthus retroflexus, the “Efficacy (%) Amaranthus retroflexus” value amounted to 33%. On to `O=C(O)CNCP(=O)(O)O` [Glyphosate, reference compound], for which, in experiment [1], the “Efficacy (%) Ipomoea aristolochiaefolia” value was determined as 70%.

With `CSc1nnc(C(C)(C)C)c(=O)n1N` [Metribuzin], the “Efficacy (%) Digitaria horizontalis” value in the experiment with Digitaria horizontalis (Metribuzin 240 g ai/ha) amounted to 15%; in the experiment with Digitaria horizontalis (Metribuzin 480 g ai/ha) it was 35%.

`CS(=O)(=O)c1ccc(C(=O)C2C(=O)CCCC2=O)c(Cl)c1COCC(F)(F)F` [TBT, tembotrione]: the “tolerance of variant PfHPPDEvo40 to the inhibitor compared to PfHPPD336W” value on PfHPPDEvo40 is given as “improved tolerance”.
